“And” between values parts separate entries of the source, which are not always exact repeats. Identical values can stand only once. Inconclusive results and toxic doses are left out. How the source made its calls: active means survival T/C of 150% or more; inactive means T/C below 125% in these data.
Test system: P388 leukemia ip, CD2F1 mice, survival T/C
Assay: NCI In Vivo Anticancer Drug Screen. Data for tumor model P388 Leukemia (intraperitoneal) in CD2F1 (CDF1) mice
Conditions: endpoint: median survival time, higher = longer survival
In short: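 Mice carrying the transplanted tumor received test compound or vehicle. Survival was recorded in each group, and the value is the treated-group measurement divided by that of the vehicle-treated control group.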

[1] = dose: 12.5 mg/kg/injection, schedule: Q01DX009 (ip), vehicle: Klucel (hydroxypropylcellulose) (HPC)
[2] = dose: 25.0 mg/kg/injection, schedule: Q01DX009 (ip), vehicle: Klucel (hydroxypropylcellulose) (HPC)
[3] = dose: 50.0 mg/kg/injection, schedule: Q01DX009 (ip), vehicle: Klucel (hydroxypropylcellulose) (HPC)
[4] = dose: 12.5 mg/kg/injection, schedule: Q01DX009 (ip), vehicle: saline
[5] = dose: 25.0 mg/kg/injection, schedule: Q01DX009 (ip), vehicle: saline
[6] = dose: 50.0 mg/kg/injection, schedule: Q01DX009 (ip), vehicle: saline
[7] = dose: 100.0 mg/kg/injection, schedule: Q01DX009 (ip), vehicle: saline
[8] = dose: 100.0 mg/kg/injection, schedule: Q04DX002 (ip), vehicle: saline
[9] = dose: 60.0 mg/kg/injection, schedule: Q01DX005 (ip), vehicle: saline with Tween-80
[10] = dose: 120.0 mg/kg/injection, schedule: Q01DX005 (ip), vehicle: saline with Tween-80
[11] = dose: 240.0 mg/kg/injection, schedule: Q01DX005 (ip), vehicle: saline with Tween-80
[12] = dose: 200.0 mg/kg/injection, schedule: Q04DX002 (ip), vehicle: saline with Tween-80
[13] = dose: 25.0 mg/kg/injection, schedule: Q04DX002 (ip), vehicle: Klucel (hydroxypropylcellulose) (HPC)
[14] = dose: 50.0 mg/kg/injection, schedule: Q04DX002 (ip), vehicle: Klucel (hydroxypropylcellulose) (HPC)
[15] = dose: 100.0 mg/kg/injection, schedule: Q04DX002 (ip), vehicle: Klucel (hydroxypropylcellulose) (HPC)
[16] = dose: 200.0 mg/kg/injection, schedule: Q04DX002 (ip), vehicle: Klucel (hydroxypropylcellulose) (HPC)

Measured: T/C

O=C1OCCOCCOCCOCCOC(=O)C1c1ccccc1
inactive: dose: 100.0 mg/kg/injection, schedule: Q04DX003 (ip), vehicle: Klucel (hydroxypropylcellulose) (HPC) 101 % of control | dose: 200.0 mg/kg/injection, schedule: Q04DX003 (ip), vehicle: Klucel (hydroxypropylcellulose) (HPC) 101 % of control | dose: 400.0 mg/kg/injection, schedule: Q04DX003 (ip), vehicle: Klucel (hydroxypropylcellulose) (HPC) 101 % of control

Nc1ccc(-c2csc(-c3ccccc3)n2)c(Cl)c1
inactive: [1] 98 % of control and 99 % of control | [2] 103 % of control and 115 % of control | [3] 103 % of control and 113 % of control

CC(O)CO (configuration not stated)
inactive: dose: 1.56 % in 0.5 ml injection vol, schedule: Q01DX009 (ip), vehicle: water 112 % of control | dose: 3.12 % in 0.5 ml injection vol, schedule: Q01DX009 (ip), vehicle: water 119 % of control | dose: 6.25 % in 0.5 ml injection vol, schedule: Q01DX009 (ip), vehicle: water 110 % of control and 119 % of control | dose: 12.5 % in 0.5 ml injection vol, schedule: Q01DX009 (ip), vehicle: water 111 % of control and 113 % of control | dose: 25.0 % in 0.5 ml injection vol, schedule: Q01DX009 (ip), vehicle: water 104 % of control and 110 % of control | dose: 50.0 % in 0.5 ml injection vol, schedule: Q01DX009 (ip), vehicle: water 88 % of control

CC(=O)SCN1CCCCC1
inactive: [4] 108 % of control | [5] 108 % of control and 112 % of control | dose: 25.0 mg/kg/injection, schedule: Q04DX002 (ip), vehicle: saline 110 % of control | [6] 102 % of control and 118 % of control | dose: 50.0 mg/kg/injection, schedule: Q04DX002 (ip), vehicle: saline 112 % of control | [7] 108 % of control | [8] 114 % of control and 116 % of control

Cc1cc(C)cc(C(=O)N=C(c2ccncc2)c2nc(-c3ccccc3)oc2O)c1
inactive: [9] 88 % of control | [10] 86 % of control | [11] 88 % of control

CC(=O)n1c2ccccc2c2c(C)c3c[n+]([O-])ccc3c(C)c21
inactive: dose: 12.5 mg/kg/injection, schedule: Q04DX002 (ip), vehicle: saline with Tween-80 100 % of control | dose: 25.0 mg/kg/injection, schedule: Q04DX002 (ip), vehicle: saline with Tween-80 110 % of control | dose: 50.0 mg/kg/injection, schedule: Q04DX002 (ip), vehicle: saline with Tween-80 122 % of control | [12] 93 % of control

C=C1CC2C3CC=C4CC(OC(C)=O)CCC4(C)C3CCC2(C)C1=O (configuration not stated)
inactive: dose: 12.5 mg/kg/injection, schedule: Q01DX009 (ip), vehicle: saline with Tween-80 94 % of control | dose: 25.0 mg/kg/injection, schedule: Q01DX009 (ip), vehicle: saline with Tween-80 92 % of control | [6] 104 % of control | [7] 110 % of control

C[C@]12CC[C@@H]3c4ccc(OCCO)c([N+](=O)[O-])c4CC[C@H]3[C@@H]1CCC2=O
inactive: dose: 50.0 mg/kg/injection, schedule: Q01DX005 (ip), vehicle: saline with Tween-80 104 % of control | dose: 100.0 mg/kg/injection, schedule: Q01DX005 (ip), vehicle: saline with Tween-80 104 % of control | dose: 200.0 mg/kg/injection, schedule: Q01DX005 (ip), vehicle: saline with Tween-80 97 % of control

O=C1c2ccccc2C(=O)N1c1nncs1
inactive: dose: 100.0 mg/kg/injection, schedule: Q04DX002 (ip), vehicle: saline with Tween-80 99 % of control | [12] 99 % of control | dose: 400.0 mg/kg/injection, schedule: Q04DX002 (ip), vehicle: saline with Tween-80 101 % of control

COc1ccc(NS(=O)(=O)c2ccc(NCc3c4ccccc4nc4ccccc34)cc2)nn1
inactive: dose: 12.5 mg/kg/injection, schedule: Q04DX002 (ip), vehicle: Klucel (hydroxypropylcellulose) (HPC) 96 % of control | [13] 99 % of control | [14] 89 % of control | [15] 87 % of control | [16] 91 % of control | dose: 400.0 mg/kg/injection, schedule: Q04DX002 (ip), vehicle: Klucel (hydroxypropylcellulose) (HPC) 93 % of control

O=[N+]([O-])c1ccccc1N=Nc1c(-c2ccccc2)nn(C(=S)S)c1-c1ccccc1
inactive: [13] 99 % of control | [14] 101 % of control | [15] 105 % of control | [16] 112 % of control

O=[N+]([O-])c1c(N2CCN(CCO)CC2)nc2ccccn12
inactive: [1] 99 % of control | [2] 91 % of control | [3] 105 % of control

CC(=O)N1C2=CCCC3CCCCC23c2ccccc21 (configuration not stated)
inactive: dose: 50.0 mg/kg/injection, schedule: Q01DX009 (ip), vehicle: saline with Tween-80 98 % of control | dose: 100.0 mg/kg/injection, schedule: Q01DX009 (ip), vehicle: saline with Tween-80 93 % of control | dose: 200.0 mg/kg/injection, schedule: Q01DX009 (ip), vehicle: saline with Tween-80 89 % of control | dose: 400.0 mg/kg/injection, schedule: Q01DX009 (ip), vehicle: saline with Tween-80 95 % of control

[CH3][Sn]([CH3])([N]=C=S)[N]=C=S
inactive: dose: 6.25 mg/kg/injection, schedule: Q01DX009 (ip), vehicle: saline 86 % of control and 93 % of control | [4] 100 % of control and 102 % of control and 106 % of control | [5] 99 % of control and 102 % of control | [6] 99 % of control and 103 % of control | dose: 50.0 mg/kg/injection, schedule: Q01DX009 (ip), vehicle: suspension in saline 114 % of control

Clc1ccc(C2C3CCN2CC3)cc1 (configuration not stated)
inactive: dose: 0.78 mg/kg/injection, schedule: Q01DX009 (ip), vehicle: saline 100 % of control | dose: 1.56 mg/kg/injection, schedule: Q01DX009 (ip), vehicle: saline 96 % of control | dose: 3.12 mg/kg/injection, schedule: Q01DX009 (ip), vehicle: saline 94 % of control

CC1(C)C2CCC1(C)C(O)C2N (configuration not stated)
inactive: dose: 30.0 mg/kg/injection, schedule: Q01DX005 (ip), vehicle: saline with Tween-80 93 % of control | [9] 94 % of control and 95 % of control

N#CCNCC#N
inactive: [8] 102 % of control | dose: 200.0 mg/kg/injection, schedule: Q04DX002 (ip), vehicle: saline 103 % of control | dose: 400.0 mg/kg/injection, schedule: Q04DX002 (ip), vehicle: saline 102 % of control

O=C1NC2C=CN(Cc3ccccc3)C=C2C(=O)N2CCCC12 (configuration not stated)
inactive: [9] 101 % of control | [10] 101 % of control | [11] 97 % of control

COc1cc(/C=C/C2=C(C)C(=O)CC(c3cc(OC)cc(OC)c3)C2C)cc(OC)c1 (configuration not stated)
inactive: dose: 12.5 mg/kg/injection, schedule: Q04DX003 (ip), vehicle: Klucel (hydroxypropylcellulose) (HPC) 100 % of control | dose: 25.0 mg/kg/injection, schedule: Q04DX003 (ip), vehicle: Klucel (hydroxypropylcellulose) (HPC) 98 % of control | dose: 50.0 mg/kg/injection, schedule: Q04DX003 (ip), vehicle: Klucel (hydroxypropylcellulose) (HPC) 95 % of control

COCC#CC(C)(C)OC
inactive: dose: 60.0 mg/kg/injection, schedule: Q01DX005 (ip), vehicle: saline 95 % of control | dose: 120.0 mg/kg/injection, schedule: Q01DX005 (ip), vehicle: saline 95 % of control | dose: 240.0 mg/kg/injection, schedule: Q01DX005 (ip), vehicle: saline 99 % of control

C/C(=C\C(=O)c1ccc(F)cc1)N1CCN(c2ccc(F)cc2)CC1
inactive: dose: 50.0 mg/kg/injection, schedule: Q01DX005 (ip), vehicle: other 96 % of control | dose: 100.0 mg/kg/injection, schedule: Q01DX005 (ip), vehicle: other 93 % of control
